Square brackets hold non-standard residues; d marks the D form. Peptide text beside a SMILES is read from it. * marks the point of attachment. DOTA = O=C(O)CN1CCN(CC(=O)O)CCN(CC(=O)*)CCN(CC(=O)O)CC1; DTPA = O=C(O)CN(CCN(CC(=O)O)CC(=O)O)CCN(CC(=O)O)CC(=O)*; CH2Cl = ClC*
Assays:
[1] = tested on: localized lesion / thrombus; conditions: rat
Excerpt: we have used several experimental models of endovascular thrombus formation in rats, which have been already developed for molecular molecular imaging of platelet activation and fibrin formation, including aneurysm of the abdominal aorta {Sarda-Mantel, 2006}, endocarditic vegetations {Rouzet, 2008}. Aneurysm of the aorta was induced by matrix decellularized xenograft in rats {Allaire, 1996}, and endocarditis by left or right ventricle catheterization followed by provoked bacteraemia {Rouzet, 2008} as previously described. These thrombus models were completed by a model of stroke, provoked by cerebral autologous thrombus emboli in rats (reference). […]
Relevant tissues (heart, abdominal aorta, or brain according to the model) were carefully dissected, frozen and cut into transverse sections of 20 μm thickness, which were exposed in a digital radioimager (Instant Imager, Packard, Meriden, USA) for 12 hours. The activity normalized to the region of interest area (mean counts/min/mm^2 corrected for background activity) was determined on autoradiograms. Quantification was performed by calculating the ratio between the activity of the relevant tissue and the activity of a region of interest drawn on either normal myocardium remote from the vegetation in the endocarditis model, supra-renal aorta sample in the AAA model, or the contralateral brain hemisphere in the stroke model. […]

[2] = target: T1, plasmin from human plasma (Homo sapiens, UniProt P00747); assay: Determination of plasmin activity with fluorescent substrate Suc-Ala-Phe-Lys-AMC; assay type: biochemical; conditions: for % of plasmin activity (mean): 10 nM plasmin, 15 min pre-incubation at room temperature, n=4
T1 construct: plasmin from human plasma (calbiochem); purchased calbiochem; host or cells: human plasma
T1 sequence (P00747 581-810 limits assumed): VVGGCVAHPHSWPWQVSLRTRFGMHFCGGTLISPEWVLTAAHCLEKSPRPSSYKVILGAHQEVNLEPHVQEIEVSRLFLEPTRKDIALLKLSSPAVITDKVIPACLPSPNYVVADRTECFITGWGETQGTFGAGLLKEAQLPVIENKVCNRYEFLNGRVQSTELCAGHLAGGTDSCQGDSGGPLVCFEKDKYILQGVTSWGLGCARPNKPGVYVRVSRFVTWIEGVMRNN
T1 sequence (P00747 97-580 partner limits assumed): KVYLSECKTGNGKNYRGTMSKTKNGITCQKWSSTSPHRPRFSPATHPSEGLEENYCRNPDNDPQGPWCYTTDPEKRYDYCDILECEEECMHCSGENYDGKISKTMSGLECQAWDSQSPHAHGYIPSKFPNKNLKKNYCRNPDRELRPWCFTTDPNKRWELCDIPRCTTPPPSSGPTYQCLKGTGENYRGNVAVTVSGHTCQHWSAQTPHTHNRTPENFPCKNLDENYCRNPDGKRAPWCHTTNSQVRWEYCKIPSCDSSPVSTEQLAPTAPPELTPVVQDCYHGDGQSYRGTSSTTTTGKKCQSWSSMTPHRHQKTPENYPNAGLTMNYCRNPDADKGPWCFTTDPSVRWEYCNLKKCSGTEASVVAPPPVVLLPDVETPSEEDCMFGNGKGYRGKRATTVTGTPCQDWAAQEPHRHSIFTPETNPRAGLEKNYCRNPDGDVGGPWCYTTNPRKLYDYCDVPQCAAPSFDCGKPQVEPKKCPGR
Experimental: Plasmin with or without inhibitors was incubated at room temperature for 15 min. The fluorescent substrate (40 μM) was added just before reading (λ excitation 390 nm, λ emission 460 nm)
10 nM of plasmin from human plasma (calbiochem) was diluted in Tris-HCl buffer pH 7.4 50 mM, NaCl 100 mM and Tween-20 0.01%. The samples were then incubated or not with the different inhibitors (see below) for 15 minutes at room temperature. Then, the fluorescent substrate (Suc-Ala-Phe-Lys-AMC, […]) was added just before reading (λ excitation 390 nm, λ emission 460 nm) on the Fluoroskan Ascent plate reader (Thermo Fisher). The fluorescence intensity was evaluated every 10 minutes for 2 hours at 37° C.—The integration time for each measure was 20 ms.
Each inhibitor was tested in a range of concentrations from 5 nM up to 1000 nM. All the inhibitors were tested in duplicates for each concentration and 4 independent experiments were performed.
Results are presented as % of active plasmin. The differences between the concentrations of each inhibitor were evaluated by paired t-test using StatView software. Statistical significance was accepted when p<0.05.

plasmin = plasmin (Homo sapiens, UniProt P00747); conditions: competitive inhibitor of plasmin; Chi, 1989; cited from earlier work
plasmin, sequence (P00747 581-810 limits assumed, species assumed): as the sequence (P00747 581-810 limits assumed) above
plasmin, sequence (P00747 97-580 partner limits assumed, species assumed): as the sequence (P00747 97-580 partner limits assumed) above

% of plasmin activity (mean) ([2]; inhibitor 5 nM) | % of plasmin activity (mean) ([2]; inhibitor 10 nM) | % of plasmin activity (mean) ([2]; inhibitor 50 nM) | % of plasmin activity (mean) ([2]; inhibitor 100 nM) | % of plasmin activity (mean) ([2]; inhibitor 500 nM) | % of plasmin activity (mean) ([2]; inhibitor 1000 nM) | inhibitory effect on plasmin activity (in words) ([2]; range 5 nM to 1000 nM) | Molecule | in vivo uptake by bone marrow [1] | Ki (plasmin)
83.0% | 79.1% | 68.7% | 54.6% | 34.1% | 12.8% |  | CC(C)[C@@H](NC(=O)CNC(=O)CN1CCN(CC(=O)O)CCN(CC(=O)O)CCN(CC(=O)O)CC1)C(=O)N[C@@H](Cc1ccccc1)C(=O)N[C@@H](CCCCN)C(=O)CCl [PL 701, DOTA-G-dV-F—K-cmk] ({DOTA}-G[dV]FK-CH2Cl) |  | 
56.3% | 46.2% | 27.4% | 16.6% | 4.0% | 1.1% |  | CC(C)[C@@H](NC(=O)CNC(=O)CN(CCN(CCN(CC(=O)O)CC(=O)O)CC(=O)O)CC(=O)O)C(=O)N[C@@H](Cc1ccccc1)C(=O)N[C@@H](CCCCN)C(=O)CCl [PL 704, DTPA-G-dV-F—K-cmk] ({DTPA}-G[dV]FK-CH2Cl) |  | 
77.1% | 68.3% | 39.1% | 11.9% | 8.0% | 7.8% |  | D-Val-Phe-Lys-COCH2Cl [VFK, reference compound] |  | 
102.3% | 123.5% | 122.9% | 113.3% | 112.1% | 107.3% | totally abolished | G-dV-F-A-cmk [PL 702] |  | 
89.8% | 95.6% | 65.7% | 43.1% | 15.8% | 5.8% |  | G-dV-F—K-cmk [PL 700] |  | 

Continued, molecule first:

Molecule | % of plasmin activity (mean) ([2]; inhibitor 5 nM) | % of plasmin activity (mean) ([2]; inhibitor 10 nM) | % of plasmin activity (mean) ([2]; inhibitor 50 nM) | % of plasmin activity (mean) ([2]; inhibitor 100 nM) | % of plasmin activity (mean) ([2]; inhibitor 500 nM) | % of plasmin activity (mean) ([2]; inhibitor 1000 nM) | inhibitory effect on plasmin activity (in words) ([2]; range 5 nM to 1000 nM) | in vivo uptake by bone marrow [1] | Ki (plasmin)
CC(C)[C@@H](NC(=O)CNC(=O)CN(CCN(CCN(CC(=O)O)CC(=O)O)CC(=O)O)CC(=O)O)C(=O)N[C@@H](Cc1ccccc1)C(=O)N[C@@H](CCCCN)C(=O)CCl [99mTc-DTPA-G-dVFKcmk, metal not drawn] ({DTPA}-G[dV]FK-CH2Cl) |  |  |  |  |  |  |  | high | 
CC(C)[C@@H](NC(=O)CNC(=O)CN1CCN(CC(=O)O)CCN(CC(=O)O)CCN(CC(=O)O)CC1)C(=O)N[C@@H](Cc1ccccc1)C(=O)N[C@@H](C)C(=O)CCl [PL 703, DOTA-G-dV-F-A-cmk] ({DOTA}-G[dV]FA-CH2Cl) | 94.9% | 93.6% | 86.1% | 84.1% | 58.4% | 48.4% |  |  | 
CC(=O)N[C@@H](CC(C)C)C(=O)N[C@@H](CC(C)C)C(=O)N[C@H](C=O)CCCNC(=N)N [leupeptin, Ac-Leu-Leu-Arg-H] |  |  |  |  |  |  |  |  | ~100 nM

From patent US9272054B2, “Agents for the molecular imaging of serine-protease in human pathologies” (Institut National de la Sante et de la Recherche Medicale …, priority 2010, dated 2016)
